Values joined by “and” are separate entries in the source; they are usually repeats but may differ in a detail not shown here. Identical values can stand only once.
What follows are compounds tested against T1, Neuropeptide Y receptor type 2 (Rattus norvegicus, UniProt Q9ERC0).
T1 sequence (Q9ERC0 whole entry): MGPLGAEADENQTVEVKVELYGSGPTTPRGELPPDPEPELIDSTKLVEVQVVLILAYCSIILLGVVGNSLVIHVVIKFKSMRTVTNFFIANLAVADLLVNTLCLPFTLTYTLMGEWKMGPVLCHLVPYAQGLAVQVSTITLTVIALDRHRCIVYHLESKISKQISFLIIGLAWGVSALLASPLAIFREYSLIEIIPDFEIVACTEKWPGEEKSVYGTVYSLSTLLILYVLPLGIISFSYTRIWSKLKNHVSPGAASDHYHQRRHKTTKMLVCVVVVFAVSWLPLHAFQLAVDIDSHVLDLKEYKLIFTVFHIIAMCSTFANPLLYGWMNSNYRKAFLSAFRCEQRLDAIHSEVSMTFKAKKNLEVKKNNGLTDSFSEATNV

Ki | SMILES
6.5 nM | NC(N)=NCCCC(NC(=O)CC1(CC(=O)N2CCN(C3c4ccccc4NC(=O)c4ccccc43)CC2)CCCC1)C(=O)NCCn1c(=O)n(-c2ccccc2)n(-c2ccccc2)c1=O (stereo not drawn) [NSC_5311024]
1.66 nM and 0.54 nM | CC(=O)N[C@@H](C)C(=O)N[C@@H](CO)C(=O)N[C@@H](CC(C)C)C(=O)N[C@@H](CCCNC(=N)N)C(=O)N[C@@H](Cc1cnc[nH]1)C(=O)N[C@@H](Cc1ccc(O)cc1)C(=O)N[C@@H](CC(C)C)C(=O)N[C@@H](CC(N)=O)C(=O)N[C@@H](CC(C)C)C(=O)N[C@H](C(=O)N[C@H](C(=O)N[C@@H](CCCNC(=N)N)C(=O)N[C@@H](CCC(N)=O)C(=O)N[C@@H](CCCNC(=N)N)C(=O)N[C@@H](Cc1ccc(O)cc1)C(N)=O)[C@@H](C)O)C(C)C [PYY, N-alpha-Ac, 22-36]

SMILES | Ki
O=c1oc2ccccc2c(O)c1C1CC(c2ccc(-c3ccccc3)cc2)Cc2ccccc21 (stereo not drawn) [NSC_41735] | 1000 nM

From BindingDB's records for doi:10.1124/mol.60.1.124 (U410, 2001)
